Reference: patent publication US9260417B2, “Therapeutic methods and compositions involving allosteric kinase inhibition” (AMITECH THERAPEUTIC SOLUTIONS, INC., priority 2010, dated 2016)

What was measured:
INSR = INSR (Homo sapiens (Human), UniProt P06213); assay: KINOMEscan competitive binding assay; conditions: 10 uM
From the text: (§1) In vitro kinase screen and competitive binding assay. Sorafenib as well as test compounds were submitted to Invitrogen and screened using their SelectScreen™ Profiling Service.

FLT4 = FLT4 (Homo sapiens (Human), UniProt P35916); assay: KINOMEscan competitive binding assay; conditions: 10 uM
FLT4, sequence (P35916 25-1363): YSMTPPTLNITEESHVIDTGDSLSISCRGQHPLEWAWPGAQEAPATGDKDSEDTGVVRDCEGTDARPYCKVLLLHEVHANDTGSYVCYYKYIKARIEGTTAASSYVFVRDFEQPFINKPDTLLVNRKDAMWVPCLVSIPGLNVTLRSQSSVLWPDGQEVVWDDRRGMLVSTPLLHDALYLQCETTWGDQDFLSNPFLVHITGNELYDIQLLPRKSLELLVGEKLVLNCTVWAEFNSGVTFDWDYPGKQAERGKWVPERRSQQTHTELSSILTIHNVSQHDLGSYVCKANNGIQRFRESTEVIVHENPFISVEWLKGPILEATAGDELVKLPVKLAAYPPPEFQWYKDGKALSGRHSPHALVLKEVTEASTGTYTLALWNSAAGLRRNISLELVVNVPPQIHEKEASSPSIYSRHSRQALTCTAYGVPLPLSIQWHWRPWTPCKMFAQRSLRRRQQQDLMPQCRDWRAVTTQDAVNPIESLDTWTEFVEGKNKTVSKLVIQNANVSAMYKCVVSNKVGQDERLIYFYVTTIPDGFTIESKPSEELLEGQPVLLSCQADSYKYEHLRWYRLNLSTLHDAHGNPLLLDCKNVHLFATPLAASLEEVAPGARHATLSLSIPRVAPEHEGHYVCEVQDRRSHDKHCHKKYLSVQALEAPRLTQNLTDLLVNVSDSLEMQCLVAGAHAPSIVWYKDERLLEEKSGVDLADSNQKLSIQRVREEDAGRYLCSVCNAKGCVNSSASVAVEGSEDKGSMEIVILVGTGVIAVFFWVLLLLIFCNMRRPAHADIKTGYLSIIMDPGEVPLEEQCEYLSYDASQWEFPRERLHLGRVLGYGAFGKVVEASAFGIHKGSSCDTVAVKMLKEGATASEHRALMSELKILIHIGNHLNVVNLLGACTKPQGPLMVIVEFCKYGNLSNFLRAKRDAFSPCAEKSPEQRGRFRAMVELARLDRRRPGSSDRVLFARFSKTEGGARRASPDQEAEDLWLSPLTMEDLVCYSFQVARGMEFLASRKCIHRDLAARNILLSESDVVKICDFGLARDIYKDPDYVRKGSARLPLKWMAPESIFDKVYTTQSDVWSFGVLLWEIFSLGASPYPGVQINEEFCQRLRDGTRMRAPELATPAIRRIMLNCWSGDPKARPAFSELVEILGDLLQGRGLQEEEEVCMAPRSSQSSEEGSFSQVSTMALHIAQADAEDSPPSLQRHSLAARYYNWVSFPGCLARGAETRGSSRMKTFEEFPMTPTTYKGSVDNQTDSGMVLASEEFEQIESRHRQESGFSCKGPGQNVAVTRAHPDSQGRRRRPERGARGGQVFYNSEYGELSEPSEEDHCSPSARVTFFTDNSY
From the text: as §1

CSF1R = CSF1R (Homo sapiens (Human), UniProt P07333); assay: KINOMEscan competitive binding assay; conditions: 10 uM
CSF1R, sequence (P07333 20-972): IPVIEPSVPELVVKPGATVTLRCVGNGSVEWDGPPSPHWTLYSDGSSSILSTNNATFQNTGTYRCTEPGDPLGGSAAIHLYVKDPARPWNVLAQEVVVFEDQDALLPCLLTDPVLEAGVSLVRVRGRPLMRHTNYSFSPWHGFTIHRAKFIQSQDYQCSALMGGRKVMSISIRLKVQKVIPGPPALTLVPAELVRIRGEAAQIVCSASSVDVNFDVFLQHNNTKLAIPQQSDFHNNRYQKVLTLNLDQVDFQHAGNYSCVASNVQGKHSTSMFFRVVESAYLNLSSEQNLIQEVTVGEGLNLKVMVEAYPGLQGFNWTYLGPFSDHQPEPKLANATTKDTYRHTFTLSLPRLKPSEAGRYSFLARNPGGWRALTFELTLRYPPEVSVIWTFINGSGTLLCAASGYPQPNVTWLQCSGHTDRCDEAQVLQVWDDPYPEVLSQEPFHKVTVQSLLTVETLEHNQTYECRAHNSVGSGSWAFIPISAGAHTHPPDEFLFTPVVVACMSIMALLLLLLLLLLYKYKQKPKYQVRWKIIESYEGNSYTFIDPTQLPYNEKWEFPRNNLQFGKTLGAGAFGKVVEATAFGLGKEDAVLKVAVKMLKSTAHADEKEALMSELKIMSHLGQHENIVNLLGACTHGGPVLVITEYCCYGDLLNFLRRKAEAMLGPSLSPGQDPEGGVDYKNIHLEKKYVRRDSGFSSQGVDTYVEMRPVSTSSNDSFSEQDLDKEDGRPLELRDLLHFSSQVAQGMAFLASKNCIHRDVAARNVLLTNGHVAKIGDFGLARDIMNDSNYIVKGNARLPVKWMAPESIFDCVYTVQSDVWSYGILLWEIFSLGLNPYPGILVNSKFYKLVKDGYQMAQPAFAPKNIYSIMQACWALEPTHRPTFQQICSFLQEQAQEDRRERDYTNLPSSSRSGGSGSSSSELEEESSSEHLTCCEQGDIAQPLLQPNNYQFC
Procedure: (§3) For the competitive binding assay, test compounds were screened at 10 μM against 70 diverse kinase targets for competitive binding using the KINOMEscan™ technology (Ambit Biosciences) (Karaman, et al. (2008) Nature biotechnology 26:127-132). 11-point Kd curves were determined for hits identified during the initial screen.

[1] = Treatment of fibrosis in patients with interstitial lung disease; format: in vivo, human; conditions: 50 mg/Kg/day, oral, 6 months
Procedure: This can include patients referred for presumed pulmonary fibrosis/interstitial pneumonitis (IPF, UIP, NSIP), sarcoidosis, hypersensitivity pneumonitis, cryptogenic organising pneumonia, drug-induced, or other idiopathic ILDs. The patients are evaluated after 6 months of treatment.

[2] = Pharmacokinetic analysis in mice; format: in vivo
1205Lu = assay: Tumor cell viability; format: cell-based, human; conditions: Melanoma 1205Lu, B-RAF V600E
Procedure: (§2) For XTT assays, cells were grown in 96-well plates overnight and all assays were conducted in growth medium will full serum and additives. Compounds were serially diluted in DMSO and then further diluted into the medium to give the appropriate concentration while minimizing precipitation associated with serial diluting in medium alone Inhibitors were added for 72 h and cell viability was quantified at 450 nm after the addition of 1 mg/ml XTT solution (Sigma-Aldrich) in phenol-red free DMEM medium containing […] (Sigma-Aldrich). Dose-response curves were plotted using GraphPad Prism software and EC50s were calculated using this program.

XPA1-RFP = assay: Tumor cell viability; format: cell-based, human; conditions: Pancreatic AC XPA1-RFP, K-Ras
Procedure: as §2

MYO3A = MYO3A (Homo sapiens (Human), UniProt Q8NEV4); assay: KINOMEscan competitive binding assay; conditions: 10 uM
CDC2L2 = CDC2L2 (Homo sapiens (Human), UniProt Q9UQ88); assay: KINOMEscan competitive binding assay; conditions: 10 uM
SRC = SRC (Homo sapiens (Human), UniProt P12931); assay: KINOMEscan competitive binding assay; conditions: 10 uM
FGFR2 = FGFR2 (Homo sapiens (Human), UniProt P21802); assay: KINOMEscan competitive binding assay; conditions: 10 uM
FGFR2, sequence (P21802 22-821): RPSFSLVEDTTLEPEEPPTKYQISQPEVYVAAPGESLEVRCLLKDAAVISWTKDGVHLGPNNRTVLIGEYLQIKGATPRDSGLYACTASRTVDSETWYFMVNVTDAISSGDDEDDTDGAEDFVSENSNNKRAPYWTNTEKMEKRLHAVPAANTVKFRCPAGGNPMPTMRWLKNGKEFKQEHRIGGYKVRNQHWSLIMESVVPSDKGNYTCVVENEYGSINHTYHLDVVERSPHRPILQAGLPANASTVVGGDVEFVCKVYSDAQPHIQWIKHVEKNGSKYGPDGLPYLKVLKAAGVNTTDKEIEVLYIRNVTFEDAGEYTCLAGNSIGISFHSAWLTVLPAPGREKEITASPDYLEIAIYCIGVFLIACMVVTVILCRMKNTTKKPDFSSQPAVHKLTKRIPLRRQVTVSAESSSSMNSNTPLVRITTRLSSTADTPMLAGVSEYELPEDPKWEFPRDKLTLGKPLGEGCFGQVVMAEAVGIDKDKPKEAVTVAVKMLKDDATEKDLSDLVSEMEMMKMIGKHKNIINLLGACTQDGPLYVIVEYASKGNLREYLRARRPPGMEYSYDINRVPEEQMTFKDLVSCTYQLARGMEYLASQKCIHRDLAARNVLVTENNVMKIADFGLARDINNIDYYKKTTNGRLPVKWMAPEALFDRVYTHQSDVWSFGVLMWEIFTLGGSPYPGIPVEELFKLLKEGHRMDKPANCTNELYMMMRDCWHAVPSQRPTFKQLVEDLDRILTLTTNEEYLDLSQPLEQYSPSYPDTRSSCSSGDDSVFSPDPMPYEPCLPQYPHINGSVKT
Procedure: as §3

BRAF = BRAF (Homo sapiens (Human), UniProt P15056); assay: KINOMEscan competitive binding assay; conditions: 10 uM
BRAF, sequence (P15056 457-717): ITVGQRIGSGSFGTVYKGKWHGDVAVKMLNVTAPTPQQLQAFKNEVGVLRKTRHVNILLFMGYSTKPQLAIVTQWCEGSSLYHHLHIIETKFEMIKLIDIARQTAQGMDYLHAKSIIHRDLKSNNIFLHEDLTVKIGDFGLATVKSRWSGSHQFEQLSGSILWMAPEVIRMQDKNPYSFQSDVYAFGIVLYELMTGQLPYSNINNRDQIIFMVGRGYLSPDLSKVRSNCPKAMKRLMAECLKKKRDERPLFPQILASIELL
Procedure: as §3

PRKD1 = PRKD1 (Homo sapiens (Human), UniProt Q15139); assay: KINOMEscan competitive binding assay; conditions: 10 uM
NCI60 panel = NCI60 panel growth inhibition; format: cell-based; conditions: average across NCI60 panel; read-out: average growth inhibitory concentration (GI50)
[3] = system: VEGF-C induced lymphangiogenesis; assay: Lymph node lymphangiogenesis model (VEGF-C Matrigel); format: in vivo, mice; conditions: 200 μl of 5.25 mg/ml ip twice daily, 7 days
Procedure: (FIG. 12A) Images of local lymph node lymphangiogenesis model between saline and VEGF-C matrigel.
Lymphangiogenesis assays were performed by subcutaneously injecting 350 μl of cold Matrigel containing saline or […] of VEGF-C(R&D Systems, Minneapolis, Minn.) into wild-type C57B1/6 mice. […] After 7 days, lymph nodes were removed, embedded in OCT, frozen and sectioned. Thin sections (5 μm) were fixed in ice cold acetone for five minutes, permeabilized in 0.1% Triton X-100 in phosphate buffered saline (PBS), blocked in 8% normal donkey serum diluted in PBS for 1.5 hours at room temperature and then incubated with 2 μg/ml anti-murine Lyve-1 (RDI-103PA50) in 8% normal donkey serum diluted in saline overnight at 4° C. After extensive washing, slides were incubated with 1 μg/ml cross-absorbed donkey anti-rabbit IgG (H+L) conjugated with Alexa Fluor 488 (Invitrogen). Slides were counterstained with DAPI. Coverslips were mounted with Dako Cytomation fluorescent mounting medium (Dako Corporation, Carpinteria, Calif.). At least five microscopic fields per tissue section/mouse were analyzed for quantification studies.

INSR, sequence (P06213 28-1382): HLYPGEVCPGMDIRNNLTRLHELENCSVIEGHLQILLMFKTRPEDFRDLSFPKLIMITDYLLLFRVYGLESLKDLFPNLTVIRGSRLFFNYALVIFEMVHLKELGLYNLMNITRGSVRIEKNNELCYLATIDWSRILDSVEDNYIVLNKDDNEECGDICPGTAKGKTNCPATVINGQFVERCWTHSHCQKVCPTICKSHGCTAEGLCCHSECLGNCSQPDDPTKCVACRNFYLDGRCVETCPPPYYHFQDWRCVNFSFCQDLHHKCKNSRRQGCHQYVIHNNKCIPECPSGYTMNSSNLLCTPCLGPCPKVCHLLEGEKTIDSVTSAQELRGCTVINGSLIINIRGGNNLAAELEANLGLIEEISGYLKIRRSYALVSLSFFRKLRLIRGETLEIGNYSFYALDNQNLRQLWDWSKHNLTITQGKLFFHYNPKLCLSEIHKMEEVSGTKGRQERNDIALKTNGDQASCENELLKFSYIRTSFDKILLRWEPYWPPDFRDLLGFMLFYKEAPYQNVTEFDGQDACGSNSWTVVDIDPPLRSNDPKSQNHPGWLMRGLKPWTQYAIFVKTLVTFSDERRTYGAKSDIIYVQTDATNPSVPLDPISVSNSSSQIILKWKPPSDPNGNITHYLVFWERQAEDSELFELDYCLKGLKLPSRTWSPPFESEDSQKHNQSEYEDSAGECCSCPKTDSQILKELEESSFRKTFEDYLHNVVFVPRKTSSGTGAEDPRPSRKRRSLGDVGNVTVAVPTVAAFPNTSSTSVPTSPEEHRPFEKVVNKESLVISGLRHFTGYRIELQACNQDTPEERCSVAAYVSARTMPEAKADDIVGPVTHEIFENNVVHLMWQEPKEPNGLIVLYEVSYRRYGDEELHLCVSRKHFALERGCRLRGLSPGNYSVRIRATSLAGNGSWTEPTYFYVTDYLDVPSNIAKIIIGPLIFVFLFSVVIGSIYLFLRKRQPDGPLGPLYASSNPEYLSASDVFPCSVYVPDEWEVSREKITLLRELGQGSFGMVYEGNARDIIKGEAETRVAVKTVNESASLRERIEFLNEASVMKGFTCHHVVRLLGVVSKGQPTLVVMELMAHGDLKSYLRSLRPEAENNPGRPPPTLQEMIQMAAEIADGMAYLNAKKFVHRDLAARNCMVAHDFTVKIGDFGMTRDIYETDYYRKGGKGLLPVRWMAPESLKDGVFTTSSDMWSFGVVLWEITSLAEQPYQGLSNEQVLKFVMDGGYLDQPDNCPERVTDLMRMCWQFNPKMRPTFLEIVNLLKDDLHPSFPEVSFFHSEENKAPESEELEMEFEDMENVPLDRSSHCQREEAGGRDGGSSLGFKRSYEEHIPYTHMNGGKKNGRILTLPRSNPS

CSc1nc(N)cc(Oc2ccc(-c3nnc(Nc4cccc(C(F)(F)F)c4)[nH]3)cc2)n1 [Compound 6]
% Control (INSR): 100%
% Control (FLT4): 100%
% Control (CSF1R): 51%
outcome of fibrosis treatment versus placebo [1]: improvement over placebo group
AUC0-12h ([2]; 50 mg/kg, ip, bid): 14700 ng·h/mL
T1/2 ([2]; 50 mg/kg, ip, bid): 11.5 h
AUC0-24h ([2]; 100 mg/kg, oral): 8700 ng·h/mL
Cmax (printed C.) ([2]; 100 mg/kg, oral): 4900 ng/mL
T1/2 ([2]; 100 mg/kg, oral): 6.1 h
EC50 (1205Lu): 830 nM
EC50 (XPA1-RFP): 280 nM
% Control (MYO3A): 94%
% Control (CDC2L2): 83%
% Control (SRC): 90%
% Control (FGFR2): 100%
% Control (BRAF): 91%
% Control (PRKD1): 100%
GI50 (NCI60 panel): 490 nM
lymphangiogenesis in lymph nodes [3]: clearly showed inhibition of lymphangiogenesis
